Assay results published in patent US6506772B1, “Substituted [1,2,4]triazolo[1,5a]pyridine derivatives with activity as adenosine receptor ligands” (Hoffmann-La Roche Inc., priority 2000, dated 2003).
pKi: −log10 of the molar value. Where two headings read alike, the source gives them in different places.

What was measured:
[1] = target: T1, HA1 adenosine receptor (Homo sapiens, UniProt P30542); experiment: Human adenosine A1 receptor affinity (Ki hA1); format: binding
T1 sequence (P30542 1-326): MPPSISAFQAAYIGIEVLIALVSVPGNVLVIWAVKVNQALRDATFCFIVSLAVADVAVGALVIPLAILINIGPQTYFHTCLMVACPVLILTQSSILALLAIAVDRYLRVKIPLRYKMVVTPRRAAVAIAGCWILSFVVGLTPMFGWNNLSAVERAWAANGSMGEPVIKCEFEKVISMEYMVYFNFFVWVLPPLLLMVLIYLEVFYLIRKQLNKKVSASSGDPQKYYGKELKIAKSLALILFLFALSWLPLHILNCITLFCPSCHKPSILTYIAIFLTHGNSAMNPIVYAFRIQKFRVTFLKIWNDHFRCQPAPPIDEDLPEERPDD

[2] = target: T2, human adenosine A2A receptor (Homo sapiens, UniProt P29274); experiment: Human adenosine A2A receptor [3H]-SCH-58261 binding assay
T2 construct: expressed in transfected cells; host or cells: CHO cells, Semliki Forest virus expression system; membrane preparation

[3] = affinity to human adenosine A1 receptor
[4] = affinity to human adenosine A2A receptor, read-out: Ki HA2A
[5] = calculated ratio of the affinity to the HA1 receptor to the HA2a receptor
[6] = recombinant human A2A in CHO cell membranes, [3H]-SCH-58261, Cheng-Prussoff, read-out: Ki hA2A

T2 sequence (P29274 whole entry): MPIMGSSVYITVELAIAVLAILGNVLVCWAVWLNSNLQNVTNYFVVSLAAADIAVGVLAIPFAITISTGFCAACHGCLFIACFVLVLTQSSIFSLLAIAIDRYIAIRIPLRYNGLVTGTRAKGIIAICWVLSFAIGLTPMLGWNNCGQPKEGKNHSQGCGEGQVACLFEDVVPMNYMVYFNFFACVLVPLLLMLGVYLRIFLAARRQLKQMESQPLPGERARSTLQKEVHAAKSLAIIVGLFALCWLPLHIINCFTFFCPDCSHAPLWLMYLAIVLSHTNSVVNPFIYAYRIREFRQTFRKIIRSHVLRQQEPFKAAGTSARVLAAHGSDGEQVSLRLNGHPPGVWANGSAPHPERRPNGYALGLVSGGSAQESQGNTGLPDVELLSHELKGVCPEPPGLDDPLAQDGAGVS

SMILES	pKi [1, 3]	pKi [2, 4]	selectivity (A1/A2a) [2, 5]	pKi [1]	selectivity (A1/A2a) ([2]; ratio KiHA1 divided by KiHA2A)	pKi [2, 6]
COc1cc(CNC(=O)c2cc(N)n3nc(-c4ccc(C)o4)nc3c2)cc(OC)c1OC [Example 112, 5-Amino-2-(5-methyl-furan-2-yl)-[1,2,4]triazolo[1,5-a]pyridine-7-carboxylic acid 3,4,5-trimethoxy-benzylamide]	5.61	6.83	16.6			
CCN(Cc1ccccc1)C(=O)c1cc(N)n2nc(-c3ccc(Br)o3)nc2c1 [Example 307, 5-Amino-2-(5-bromo-furan-2-yl)-[1,2,4]triazolo[1,5-a]pyridine-7-carboxylic acid benzyl-ethyl-amide]	7.67	8.77	12.5			
CCCCNC(=O)c1cc(N)n2nc(-c3ccccn3)nc2c1 [Example 49, 5-Amino-2-pyridin-2-yl-[1,2,4]triazolo[1,5-a]pyridine-7-carboxylic acid butylamide]	6.62	7.46	7.1			
Nc1cc(C(=O)NCc2ccccc2Cl)cc2nc(-c3ccco3)nn12 [Example 109, 5-Amino-2-furan-2-yl-[1,2,4]triazolo[1,5-a]pyridine-7-carboxylic acid 2-chloro-benzylamide]	7.23	8.54	20.2			
Nc1cc(C(=O)N2CCCCC2)cc2nc(-c3nccs3)nn12 [Example 103, (5-Amino-2-thiazol-2-yl-[1,2,4]triazolo[1,5-a]pyridin-7-yl)-piperidin-1-yl-methanone]	5.45	7.00	35.1			
C#CCN(C)C(=O)c1cc(N)n2nc(-c3ccc(Br)o3)nc2c1 [Example 266, 5-Amino-2-(5-bromo-furan-2-yl)-[1,2,4]triazolo[1,5-a]pyridine-7-carboxylic acid methyl-prop-2-ynyl-amide]	6.61	8.51	79.4			
Cc1ccc(-c2nc3cc(C(=O)NC4CCc5ccccc54)cc(N)n3n2)s1 (stereo not drawn) [Example 203, 5-Amino-2-(5-methyl-thiophen-2-yl)-[1,2,4]triazolo[1,5-a]pyridine-7-carboxylic acid indan-1-ylamide]	7.18	7.22	1.1			
CC(NC(=O)c1cc(N)n2nc(-c3nccs3)nc2c1)c1ccccc1 (stereo not drawn) [Example 126, 5-Amino-2-thiazol-2-yl-[1,2,4]triazolo[1,5-a]pyridine-7-carboxylic acid (1-phenyl-ethyl)-amide]	6.63	7.26	4.3			
Nc1cc(C(=O)NC2CCCCC2)cc2nc(-c3ccc(Cl)o3)nn12 [Example 234, 5-Amino-2-(5-chloro-furan-2-yl)-[1,2,4]triazolo[1,5-a]pyridine-7-carboxylic acid cyclohexylamide]	6.34	7.16	6.6			
CN(C)C(=O)c1cc(N)n2nc(-c3ccc(Br)o3)nc2c1 [Example 293, 5-Amino-2-(5-bromo-furan-2-yl)-[1,2,4]triazolo[1,5-a]pyridine-7-carboxylic acid dimethylamide]	6.28	7.62	21.9			
COc1ccccc1CNC(=O)c1cc(N)n2nc(-c3ccccc3)nc2c1 [Example 220, 5-Amino-2-phenyl-[1,2,4]triazolo[1,5-a]pyridine-7-carboxylic acid 2-methoxy-benzylamide]	7.32	7.53	1.7			
CCN(C(=O)c1cc(N)n2nc(-c3ccc(Br)o3)nc2c1)C(C)C [Example 272, 5-Amino-2-(5-bromo-furan-2-yl)-[1,2,4]triazolo[1,5-a]pyridine-7-carboxylic acid ethyl-isopropyl-amide]	7.09	8.66	36.8			
C=CCN(C(=O)c1cc(N)n2nc(-c3ccc(Br)o3)nc2c1)C1CCCCC1 [Example 348, 5-Amino-2-(5-bromo-furan-2-yl)-[1,2,4]triazolo[1,5-a]pyridine-7-carboxylic acid allyl-cyclohexyl-amide]	7.17	8.59	25.8			
CCN(C(=O)c1cc(N)n2nc(-c3ccoc3)nc2c1)C(C)C [Example 221, 5-Amino-2-furan-3-yl-[1,2,4]triazolo[1,5-a]pyridine-7-carboxylic acid ethyl-isopropyl-amide]	5.65	6.51	7.3			
Nc1cc(C(=O)NCCc2ccccc2F)cc2nc(-c3ccccn3)nn12 [Example 40, 5-Amino-2-pyridin-2-yl-[1,2,4]triazolo[1,5-a]pyridine-7-carboxylic acid [2-(2-fluoro-phenyl)-ethyl]-amide]	6.69	7.30	4.1			
Nc1cc(C(=O)NCc2ccccc2)cc2nc(-c3ccoc3)nn12 [Example 224, 5-Amino-2-furan-3-yl-[1,2,4]triazolo[1,5-a]pyridine-7-carboxylic acid benzylamide]	6.67	7.32	4.5			
CC(C)N(Cc1ccccc1)C(=O)c1cc(N)n2nc(-c3ccccn3)nc2c1 [Example 433, 5-Amino-2-pyridin-2-yl-[1,2,4]triazolo[1,5-a]pyridine-7-carboxylic acid benzyl-isopropyl-amide]				6.73	11.8	7.81
CCN(C(=O)c1cc(N)n2nc(-c3ccc(Cl)o3)nc2c1)C(C)C [Example 255, 5-Amino-2-(5-chloro-furan-2-yl)-[1,2,4]triazolo[1,5-a]pyridine-7-carboxylic acid ethyl-isopropyl-amide]	7.03	8.49	28.9			
CCN(CC)C(=O)c1cc(N)n2nc(-c3sccc3C)nc2c1 [Example 185, 5-Amino-2-(3-methyl-thiophen-2-yl)-[1,2,4]triazolo[1,5-a]pyridine-7-carboxylic acid diethylamide]	5.85	6.62	6.0			
CCCCN(Cc1ccccc1)C(=O)c1cc(N)n2nc(-c3ccc(OC)s3)nc2c1 [Example 73, 5-Amino-2-(5-methoxy-thiophen-2-yl)-[1,2,4]triazolo[1,5-a]pyridine-7-carboxylic acid benzyl-butyl-amide]	6.87	7.43	3.6			
Nc1cc(C(=O)NC2CCCCC2)cc2nc(-c3cccs3)nn12 [Example 162, 5-Amino-2-thiophen-2-yl-[1,2,4]triazolo[1,5-a]pyridine-7-carboxylic acid cyclohexylamide]	6.52	7.21	4.9			
CC(C)N(Cc1ccccc1)C(=O)c1cc(N)n2nc(-c3ccc(Cl)o3)nc2c1 [Example 239, 5-Amino-2-(5-chloro-furan-2-yl)-[1,2,4]triazolo[1,5-a]pyridine-7-carboxylic acid benzyl-isopropyl-amide]	7.60	8.77	14.6			
CN(Cc1ccccc1)C(=O)c1cc(N)n2nc(-c3ccccc3)nc2c1 [Example 152, 5-Amino-2-phenyl-[1,2,4]triazolo[1,5-a]pyridine-7-carboxylic acid benzyl-methyl-amide]	6.44	7.48	11.2			
CCCCNC(=O)c1cc(N)n2nc(-c3cccn3C)nc2c1 [Example 178, 5-Amino-2-(1-methyl-1H-pyrrol-2-yl)-[1,2,4]triazolo[1,5-a]pyridine-7-carboxylic acid butylamide]	6.35	7.19	6.9			
COc1ccc(-c2nc3cc(C(=O)NCc4ccccc4OC)cc(N)n3n2)s1 [Example 58, 5-Amino-2-(5-methoxy-thiophen-2-yl)-[1,2,4]triazolo[1,5-a]pyridine-7-carboxylic acid 2-methoxy-benzylamide]	7.28	7.14	0.7			
CC(C)N(Cc1ccccc1)C(=O)c1cc(N)n2nc(-c3cc(Br)co3)nc2c1 [Example 173, 5-Amino-2-(4-bromo-furan-2-yl)-[1,2,4]triazolo[1,5-a]pyridine-7-carboxylic acid benzyl-isopropyl-amide]	7.13	7.35	1.7			
CCCN(CCC)C(=O)c1cc(N)n2nc(-c3ccc(Br)o3)nc2c1 [Example 338, 5-Amino-2-(5-bromo-furan-2-yl)-[1,2,4]triazolo[1,5-a]pyridine-7-carboxylic acid dipropylamide]	6.70	8.51	64.4			
CCN(CC)C(=O)c1cc(N)n2nc(-c3ccccn3)nc2c1 [Example 35, 5-Amino-2-pyridin-2-yl-[1,2,4]triazolo[1,5-a]pyridine-7-carboxylic acid diethylamide]	5.54	6.97	27.5			
CCC1CCC(C)N(C(=O)c2cc(N)n3nc(-c4nccs4)nc3c2)C1 (stereo not drawn) [Example 404, (5-Amino-2-thiazol-2-yl-[1,2,4]triazolo[1,5-a]pyridin-7-yl)-(5-ethyl-2-methyl-piperidin-1-yl)-methanone]				5.90	13.3	7.03
